Data from publication PMC8668966, “Short-chain aurachin D derivatives are selective inhibitors of E. coli cytochrome bd-I and bd-II oxidases” (Scientific Reports, 2021).
Converted amounts (≈) assume the structure as drawn. Like-named read-outs stand apart in the source and are kept apart here.

Key:
cytochrome bo3 [1] = target: T1, cytochrome bo3 (Escherichia coli, UniProt P0ABI8); test: Oxygen reductase activity assay (Clark-type electrode) with purified cytochrome bo3; type: biochemical, E. coli; details: for Rest activity in % of control activity bo3 / remaining activity at 250 µM: compound 250 µM, 200 µM ubiquinone-1, 5 mM dithiothreitol, 30 nM enzyme, RT, 100% = DMSO, mean ± S.E.M. (n=3); for remaining activity at 250 µM: read-out: Rest activity in % of control activity bo3; for Ki: final enzyme concentration 30 nM, EC50 of DoseResp fit, read-out: Ki^app bo3
T1 construct: made in house; host or cells: E. coli strain GO195 with pIRHisA
From the text: (§1) To determine inhibition of our test set compounds and to assess the selectivity for bd-type oxidases we tested the inhibitory effect via […] determination of oxygen reduction using purified protein samples and ubiquinol-1 as electron donor. In this set-up, we kept the compound at a high molar excess compared to the protein. Figures 3 and 4 illustrate the screening results for cytochromes bd-I, bd-II and bo3, respectively. A comparative overview of all compounds is given in SI Table S1. […]. […] Among these compounds, AC2-11 has the strongest inhibitory effect on all three oxidases. […]. For AurC and its analogues it was reported that replacement of N–OH with an N–H group decreases the inhibitory potential only for cytochrome bo3, keeping a strong inhibitory effect on cytochrome bd[17]. Correspondingly, we observed a clear inhibition of cytochromes bd-I and bd-II with all AurD-type compounds. Regarding the long-chain derivatives AC4-11, AC2-11 and AD3-11, inhibition of cytochromes bd-I and bd-II and bo3 highlight the importance of the residue at the nitrogen group at position 1 for enzyme selectivity. […]. […] Regarding the cyclic derivatives, 7-MTHA causes only a minor inhibition of cytochrome bd-I. This effect could be due to the methoxy group in position 7 that introduces an additional polarity to the molecule. Steric hindrance as a consequence of the third ring structure is less likely, because AD5-cyclo is bulkier and reduces activity < 10% of cytochromes bd-I and bd-II.
(§2) Oxygen reductase activity was measured as oxygen consumption rate of purified protein by OX-MR Clark-type oxygen electrode linked to a PA 2000 picoammeter and to the ADC-216 AD-converter. Data recording with SensorTrace Basic 2.1 software (all Unisense, Denmark). Measurements were performed at RT in stirred 2 ml—glass vials with a total reaction volume of 600 µl. Oxygen consumption was initiated by adding 30 nM (bd-I, bo3) or 120 nM (bd-II) of the respective enzyme to the equilibrated mixture containing 20 mM NaPi (pH 8.0), 50 mM NaCl, 0.02% DDM, 5 mM Dithiothreitol (DTT) and 200 µM Ubiquinone-1 (2,3-Dimethoxy-5-methyl-6-(3-methyl-2-buten-1-yl)-1,4-benzoquinone). A 10 min equilibration period was implemented prior to enzyme addition. Inhibition experiments were performed with 250 µM of the respective compound from 20 mM stock solution in DMSO before equilibration. Data analysis and visualization via Origin Lab Pro 9.5 (Additive GmbH, Germany) Data analysis included an unpaired, two-sided t-test of two samples to check that given residual activities were sufficiently different between proteins (at significance levels p < 0.05, 0.01 or 0.001). HQNO (2-heptyl-4-quinolinol 1-oxide) was purchased from biomol GmbH, Hamburg. […]. The Ki^app value was adopted as the EC50 from the sigmoidal DoseRespFit. Further information can be found in Supporting Information Figures S2 to S5.

cytochrome bd-I = target: T2, cytochrome bd-I (Escherichia coli, UniProt P0ABJ9); test: Oxygen reductase activity assay (Clark-type electrode) with purified cytochrome bd-I; type: biochemical, E. coli; details: for Rest activity in % of control activity bd-I / remaining activity at 250 µM: compound 250 µM, 200 µM ubiquinone-1, 5 mM dithiothreitol, 30 nM enzyme, RT, 100% = DMSO, mean ± S.E.M. (n=3); for remaining activity at 250 µM: read-out: Rest activity in % of control activity bd-I; for Ki: final enzyme concentration 30 nM, inhibitor concentration at 50% residual oxygen reductase activity (EC50 of DoseResp fit), read-out: Ki^app bd-I
T2 construct: made in house; host or cells: E. coli C43 (DE3) Δ bo3 (CLY)
From the text: as §1, §2
Dose response curves were created to rank the compounds due to their inhibition potency. Inhibitors were titrated in presence of 30nM bd-I. From Clark-type electrode monitored oxygen consumption, resulting oxygen reduction activity with 200µM Q1, reduced with 2mM DTT, was calculated as turnover in e^-/s. Turnover values were normalized, followed by a curve fitting with DoseResp Fit (1) in Origin LabPro9.5 (Additive GmbH, Germany). Data points are mean of minimum three independent measurements ± S.E.M.

cytochrome bd-II = target: T3, cytochrome bd-II (Escherichia coli, UniProt P26459); test: Oxygen reductase activity assay (Clark-type electrode) with purified cytochrome bd-II; type: biochemical, E. coli; details: compound 250 µM, 200 µM ubiquinone-1, 5 mM dithiothreitol, 120 nM enzyme, RT, 100% = DMSO, mean ± S.E.M. (n=3); for remaining activity at 250 µM: read-out: Rest activity in % of control activity bd-II
T3 construct: made in house; host or cells: E. coli C43 (DE3) Δ bo3 (CLY)
From the text: as §1, §2

cytochrome bo3 [2] = target: T1, cytochrome bo3; details: values in brackets, determined spectrophotometrically; read-out: Ki^app bo3 (previous data) (converted); cited from earlier work
cytochrome bd = target: cytochrome bd; set-up: method as in PMID 9880809; details: values in brackets, determined spectrophotometrically; read-out: Ki^app bd-I (previous data) (converted); cited from earlier work
[3] = test system: cytochrome bc1 complex (complex III) from beef heart mitochondria; set-up: method as in PMID 8206232; details: isolated complex III; cited from earlier work
B. subtilis = test system: B. subtilis; set-up: method as in PMID 3106289; details: cited from earlier work
[4] = test system: multidrug efflux transporter deficient TolC strain of Escherichia coli; details: cited from earlier work
[5] = test system: human U-2 OS osteosarcoma cells; set-up: method as in PMID 23946854; details: upon treatment; cited from earlier work

T1 sequence (P0ABJ3 whole entry): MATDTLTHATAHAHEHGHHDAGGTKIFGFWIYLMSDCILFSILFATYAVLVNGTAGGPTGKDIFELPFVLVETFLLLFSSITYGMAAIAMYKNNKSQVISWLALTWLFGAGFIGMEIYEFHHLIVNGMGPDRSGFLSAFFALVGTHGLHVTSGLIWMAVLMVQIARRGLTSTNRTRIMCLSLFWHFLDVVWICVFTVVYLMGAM
T1 sequence (P0ABJ1 25-315, further chain): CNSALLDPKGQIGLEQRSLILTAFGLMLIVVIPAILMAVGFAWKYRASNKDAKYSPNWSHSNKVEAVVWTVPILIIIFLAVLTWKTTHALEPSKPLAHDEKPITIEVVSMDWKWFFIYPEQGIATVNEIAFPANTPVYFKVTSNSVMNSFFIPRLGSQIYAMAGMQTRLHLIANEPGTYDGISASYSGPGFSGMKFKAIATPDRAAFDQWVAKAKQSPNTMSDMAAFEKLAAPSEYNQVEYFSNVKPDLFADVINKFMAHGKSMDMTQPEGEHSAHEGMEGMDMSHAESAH
T1 sequence (P0ABJ6 whole entry, further chain): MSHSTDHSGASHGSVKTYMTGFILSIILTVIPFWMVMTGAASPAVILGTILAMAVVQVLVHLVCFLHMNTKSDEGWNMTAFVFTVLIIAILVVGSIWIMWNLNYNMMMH
T1 sequence (P0ABI8 whole entry): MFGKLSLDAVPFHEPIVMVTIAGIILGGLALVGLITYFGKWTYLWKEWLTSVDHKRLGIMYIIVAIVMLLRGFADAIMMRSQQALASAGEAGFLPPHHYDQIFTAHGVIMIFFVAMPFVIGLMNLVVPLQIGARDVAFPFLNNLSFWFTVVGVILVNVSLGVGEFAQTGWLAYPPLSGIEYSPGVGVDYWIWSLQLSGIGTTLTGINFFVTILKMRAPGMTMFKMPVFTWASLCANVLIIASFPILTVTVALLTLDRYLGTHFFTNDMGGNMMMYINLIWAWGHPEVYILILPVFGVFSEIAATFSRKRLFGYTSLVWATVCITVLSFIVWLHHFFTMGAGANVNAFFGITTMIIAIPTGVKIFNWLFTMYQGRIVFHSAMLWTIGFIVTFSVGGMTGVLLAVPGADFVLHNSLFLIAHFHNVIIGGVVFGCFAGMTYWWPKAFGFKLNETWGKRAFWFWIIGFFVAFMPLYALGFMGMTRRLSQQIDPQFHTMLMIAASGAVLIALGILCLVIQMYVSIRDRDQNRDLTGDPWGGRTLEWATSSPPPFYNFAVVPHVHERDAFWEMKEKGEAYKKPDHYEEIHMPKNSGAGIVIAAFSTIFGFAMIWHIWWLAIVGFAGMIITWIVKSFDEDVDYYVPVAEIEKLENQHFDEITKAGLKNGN
T3 sequence (P26459 whole entry): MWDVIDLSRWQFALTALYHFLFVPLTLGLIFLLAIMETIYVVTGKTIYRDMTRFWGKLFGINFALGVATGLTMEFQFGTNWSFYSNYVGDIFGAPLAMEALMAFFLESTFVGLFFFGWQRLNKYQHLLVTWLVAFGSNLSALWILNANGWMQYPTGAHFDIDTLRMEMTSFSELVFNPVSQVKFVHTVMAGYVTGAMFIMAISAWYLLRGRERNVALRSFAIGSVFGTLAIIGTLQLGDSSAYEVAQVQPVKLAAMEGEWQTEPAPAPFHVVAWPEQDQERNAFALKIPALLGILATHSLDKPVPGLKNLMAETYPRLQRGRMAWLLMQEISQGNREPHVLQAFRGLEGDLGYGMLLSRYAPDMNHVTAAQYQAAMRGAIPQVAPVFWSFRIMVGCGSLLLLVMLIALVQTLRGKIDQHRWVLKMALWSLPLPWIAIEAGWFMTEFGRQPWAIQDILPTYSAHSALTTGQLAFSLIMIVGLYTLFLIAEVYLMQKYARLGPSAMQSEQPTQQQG
T3 sequence (P24244 whole entry, further chain): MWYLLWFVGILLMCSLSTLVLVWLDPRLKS
T3 sequence (P26458 whole entry, further chain): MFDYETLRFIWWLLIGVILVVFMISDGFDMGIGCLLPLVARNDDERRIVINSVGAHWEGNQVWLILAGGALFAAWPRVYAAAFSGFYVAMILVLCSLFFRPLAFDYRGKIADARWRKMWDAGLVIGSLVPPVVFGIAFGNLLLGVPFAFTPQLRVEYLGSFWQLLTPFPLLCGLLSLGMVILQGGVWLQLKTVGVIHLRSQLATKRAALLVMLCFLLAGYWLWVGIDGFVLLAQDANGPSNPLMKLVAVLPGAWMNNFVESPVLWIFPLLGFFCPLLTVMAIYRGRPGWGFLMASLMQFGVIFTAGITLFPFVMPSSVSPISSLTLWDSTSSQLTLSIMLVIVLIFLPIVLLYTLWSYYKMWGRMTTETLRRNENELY
T2 sequence (P0ABJ9 whole entry): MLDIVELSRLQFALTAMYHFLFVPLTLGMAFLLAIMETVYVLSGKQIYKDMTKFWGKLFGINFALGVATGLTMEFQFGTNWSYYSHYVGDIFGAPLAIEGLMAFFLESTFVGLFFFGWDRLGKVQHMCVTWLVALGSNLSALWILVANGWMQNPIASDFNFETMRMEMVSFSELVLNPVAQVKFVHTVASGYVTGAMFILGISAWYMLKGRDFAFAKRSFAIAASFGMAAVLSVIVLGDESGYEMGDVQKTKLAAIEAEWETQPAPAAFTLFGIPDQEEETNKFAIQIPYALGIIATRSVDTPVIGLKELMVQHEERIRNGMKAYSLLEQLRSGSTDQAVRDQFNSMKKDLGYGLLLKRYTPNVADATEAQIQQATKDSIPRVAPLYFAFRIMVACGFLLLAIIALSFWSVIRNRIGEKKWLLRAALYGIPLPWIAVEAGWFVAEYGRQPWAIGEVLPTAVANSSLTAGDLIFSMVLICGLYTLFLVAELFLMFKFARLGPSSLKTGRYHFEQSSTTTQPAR
T2 sequence (P0ABK2 whole entry, further chain): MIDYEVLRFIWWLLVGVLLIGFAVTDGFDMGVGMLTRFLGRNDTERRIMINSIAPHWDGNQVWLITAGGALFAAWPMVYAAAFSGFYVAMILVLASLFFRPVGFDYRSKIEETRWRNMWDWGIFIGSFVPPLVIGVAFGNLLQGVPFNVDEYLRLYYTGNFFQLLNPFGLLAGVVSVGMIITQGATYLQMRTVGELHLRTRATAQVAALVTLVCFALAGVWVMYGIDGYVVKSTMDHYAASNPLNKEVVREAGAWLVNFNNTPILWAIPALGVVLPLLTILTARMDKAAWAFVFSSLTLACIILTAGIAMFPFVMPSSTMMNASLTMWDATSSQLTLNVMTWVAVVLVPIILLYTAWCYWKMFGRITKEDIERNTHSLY
T2 sequence (P56100 whole entry, further chain): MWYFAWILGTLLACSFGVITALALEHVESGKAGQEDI

2-(2-Heptyl)-3-methyl-4(1H)-quinolone [AD7-1]
Rest activity in % of control activity bo3 (cytochrome bo3 [1]): 63.6 ± 1.3%
Rest activity in % of control activity bo3 (cytochrome bo3 [1]; listed as AD7-1*): 47.0 ± 1.9%
Rest activity in % of control activity bd-I (cytochrome bd-I): 4.90 ± 1.5%
Rest activity in % of control activity bd-I (cytochrome bd-I; listed as AD7-1*): 3.46 ± 0.17%
Rest activity in % of control activity bd-II (cytochrome bd-II): 1.18 ± 0.12%
Rest activity in % of control activity bd-II (cytochrome bd-II; listed as AD7-1*): 1.71 ± 0.48%

CCCCCCCCCCc1c(C)c(=O)c2ccccc2n1O [AC1-10]
Ki (cytochrome bo3 [2]): 13 nM
remaining activity at 250 µM (cytochrome bo3 [1]): 0.626 ± 0.08%
remaining activity at 250 µM (cytochrome bd-I): 1.39 ± 0.19%
Ki (cytochrome bd-I): 82 ± 11 nM
Ki (cytochrome bd): 280 nM

CCCCCCCCCCCc1c(CC)c(=O)c2ccccc2n1O [AC2-11]
Ki (cytochrome bo3 [2]): 46 nM
remaining activity at 250 µM (cytochrome bo3 [1]): 0.445 ± 0.08%
Ki (cytochrome bo3 [1]): 31 ± 6 nM
remaining activity at 250 µM (cytochrome bd-I): 1.09 ± 0.09%
Ki (cytochrome bd-I): 34 ± 6 nM
remaining activity at 250 µM (cytochrome bd-II): 0.73 ± 0.21%
Ki (cytochrome bd): 440 nM

CCCCCCCCCCCc1c(CCCC)c(=O)c2ccccc2n1O [AC4-11]
Ki (cytochrome bo3 [2]): 144 nM
remaining activity at 250 µM (cytochrome bo3 [1]): 0.863 ± 0.29%
remaining activity at 250 µM (cytochrome bd-I): 1.19 ± 0.42%
Ki (cytochrome bd-I): 106 ± 13 nM
remaining activity at 250 µM (cytochrome bd-II): 2.14 ± 0.35%
Ki (cytochrome bd): 340 nM

CCCCCCCCCCCc1cc(=O)c2ccccc2[nH]1 [AD0-11]
Rest activity in % of control activity bo3 (cytochrome bo3 [1]): 23.3 ± 2.3%
remaining activity at 250 µM (cytochrome bo3 [1]): 23%
remaining activity at 250 µM (cytochrome bd-I): > 30%
remaining activity at 250 µM (cytochrome bd-II): 8.4 ± 0.36%

CCCCCCCCCCCc1[nH]c2ccccc2c(=O)c1CCC [AD3-11]
inhibition at 250 µM (cytochrome bo3 [1]; at 250 µM, read-out: inhibitory effect on cytochrome bo3): ~50%
remaining activity at 250 µM (cytochrome bo3 [1]): 47.1 ± 7%
Ki (cytochrome bo3 [1]): > 100000 nM
remaining activity at 250 µM (cytochrome bd-I): 0.453 ± 0.28%
fold higher inhibitory potential compared to AD0-11 (cytochrome bd-I; cytochrome bd-I): 188 fold
ratio Ki^app-bo3 vs. Ki^app-bd-I (cytochrome bd-I; selectivity bd-I over bo3): around 300
remaining activity at 250 µM (cytochrome bd-II): 1.45 ± 0.18%

CCCCc1c(C)[nH]c2ccccc2c1=O [AD4-1]
remaining activity at 250 µM (cytochrome bo3 [1]): 69.7 ± 4.3%
remaining activity at 250 µM (cytochrome bd-I): 5.8 ± 0.39%
remaining activity at 250 µM (cytochrome bd-II): 1.33 ± 0.26%

CCCCCc1c(C)[nH]c2ccccc2c1=O [AD5-1]
remaining activity at 250 µM (cytochrome bo3 [1]): 70.4 ± 1.5%
remaining activity at 250 µM (cytochrome bd-I): 4 ± 0.13%
remaining activity at 250 µM (cytochrome bd-II): 1.85 ± 0.18%

O=c1c2c([nH]c3ccccc13)CCCCC2 [AD5-cyclo]
remaining activity at 250 µM (cytochrome bo3 [1]): 70.5 ± 2.6%
Rest activity in % of control activity bd-I (cytochrome bd-I): 5.67 ± 1.14%
remaining activity at 250 µM (cytochrome bd-I): < 10%
Rest activity in % of control activity bd-II (cytochrome bd-II): 1.51 ± 0.15%

CCCCCCc1c(C)[nH]c2ccccc2c1=O [AD6-1]
remaining activity at 250 µM (cytochrome bo3 [1]): 73.2 ± 1.7%
remaining activity at 250 µM (cytochrome bd-I): 3.45 ± 0.19%
remaining activity at 250 µM (cytochrome bd-II): 1.3 ± 0.17%

CCCCCCCc1c(CC)[nH]c2ccccc2c1=O [AD7-2]
remaining activity at 250 µM (cytochrome bo3 [1]): 33.3 ± 1.4%
remaining activity at 250 µM (cytochrome bd-I): 1.89 ± 1.8%
Ki^app fold lower compared to AD4-1 (cytochrome bd-I; cytochrome bd-I): 45 fold
remaining activity at 250 µM (cytochrome bd-II): 1.4 ± 0.49%

CCCCCCCCc1c(C)[nH]c2ccccc2c1=O [AD8-1]
remaining activity at 250 µM (cytochrome bo3 [1]): 94.6 ± 3.6%
remaining activity at 250 µM (cytochrome bd-I): 3.59 ± 0.11%
increase of Ki^app value compared to AD7-2 (cytochrome bd-I; cytochrome bd-I): sixfold
remaining activity at 250 µM (cytochrome bd-II): 1.36 ± 0.21%

CCCCCCCCCCCc1cc(=O)c2ccccc2[nH]1 [AD11-0, 2-undecylquinolone]
pIC50 [3]: 6.66

CC(C)=CCC/C(C)=C/CC/C(C)=C/Cc1c(C)n(O)c2ccccc2c1=O [AurC, Aurachin C]
minimum inhibitory concentration (B. subtilis): 0.15 µg/mL (≈ 0.395 µM)

CC(C)=CCC/C(C)=C/CC/C(C)=C/Cc1c(C)[nH]c2ccccc2c1=O [AurD, Aurachin D]
antibacterial effect [4]: moderate antibacterial effect
Rest activity in % of control activity bo3 (cytochrome bo3 [1]): 29.9 ± 2.4%
remaining activity at 250 µM (cytochrome bo3 [1]): 30%
Ki (cytochrome bo3 [1]): > 10000 nM
remaining activity at 250 µM (cytochrome bd-I): 3.93 ± 0.64%
mitochondrial membrane potential reduced to [5]: 50–80%
remaining activity at 250 µM (cytochrome bd-II): 1.62 ± 0.19%
minimum inhibitory concentration (B. subtilis): 0.15 µg/mL (≈ 0.413 µM)

Cc1cc(O)c2ccccc2n1 [Compound 2-MQ, 2-methyl-4-quinolinol, reference compound]
remaining activity at 250 µM (cytochrome bo3 [1]): 64.2 ± 2.6%
remaining activity at 250 µM (cytochrome bd-I): > 30%
remaining activity at 250 µM (cytochrome bd-II): 17.8 ± 0.55%

COc1ccc2[nH]c3c(c(=O)c2c1)CCCC3 [Compound 7-MTHA, 7-methoxy-1,3,4,10-tetrahydro-9(2H)-acridinone, reference compound]
remaining activity at 250 µM (cytochrome bo3 [1]): 69.3 ± 1.7%
remaining activity at 250 µM (cytochrome bd-I): 35.7 ± 5.7%
remaining activity at 250 µM (cytochrome bd-II): 9.6 ± 0.16%

CCCCCCCc1cc(O)c2ccccc2[n+]1[O-] [HQNO, 2-heptyl-4-quinolinol 1-oxide, reference compound]
remaining activity at 250 µM (cytochrome bo3 [1]): 4.53 ± 0.58%
Ki (cytochrome bo3 [1]): 2600 ± 400 nM
remaining activity at 250 µM (cytochrome bd-I): 7.29 ± 0.45%
Ki (cytochrome bd-I): 3600 ± 500 nM
remaining activity at 250 µM (cytochrome bd-II): 6.44 ± 1.3%
